Test systems include A498; CAKI-1; HCC 2998; HOP-92; M14; NCI-H23; NCI-H460; OVCAR-8; RXF 393; SK-MEL-28; SK-MEL-2; SK-OV-3; SNB-75; SW-620; U-251; SK-MEL-5.
Experiment in all cases: NCI anticancer screen, dose series, 48 h

Structures are written as SMILES.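 Protocol summary: plate cells (96-well), add compound at 5 concentrations, incubate 48 h, interpolate endpoints linearly. GI50 is the concentration that inhibits growth by half.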 Calls of active or inactive are those of the source. No stated cut-off is given here; in the data, active = GI50 up to about 1.1 µM and inactive = higher.

For `O=C(COc1ccccc1)NS(=O)(=O)c1ccccc1`, the GI50 in the assay on A498, in the assay with CAKI-1, in the assay with HCC 2998, in the assay with HOP-92, in the assay on M14 and in the assay on NCI-H23 was > 100 µM (inactive) in each case. Besides, the GI50 in the assay on NCI-H460, with OVCAR-8, with RXF 393, in the assay on SK-MEL-28, in the assay with SK-MEL-2 and with SK-OV-3 was > 100 µM (inactive) in each case. Moreover, the GI50 with SNB-75, in the assay with SW-620 and with U-251 was > 100 µM (inactive) in each case.
For the compound `CC(=O)NC1=C(C)C(=O)c2c(nc3n2CCC3OC(=O)CCl)C1=O` (stereo unspecified), the GI50 was 12.6 µM (inactive) with A498; 20.9 µM (inactive) in the assay on CAKI-1; 12.9 µM (inactive) with HCC 2998; 2.33 µM (inactive) in the assay on HOP-92; 18.2 µM (inactive) in the assay with M14; 11.7 µM (inactive) in the assay on NCI-H23. Besides, the GI50 in the assay on NCI-H460 is 20.1 µM (inactive); with OVCAR-8, 4.1 µM (inactive); in the assay with RXF 393 it was 5.43 µM (inactive); with SK-MEL-28 it was 17.2 µM (inactive); in the assay on SK-MEL-2, 3 µM (inactive); with SK-MEL-5, 12.7 µM (inactive). Besides, the GI50 was 16.1 µM (inactive) in the assay on SK-OV-3, 16.3 µM (inactive) in the assay with SNB-75, 8.99 µM (inactive) with SW-620 and 3.3 µM (inactive) with U-251.
As for `Cc1c(C(=O)CC(=O)C(=O)Nc2cc(Cl)ccc2Cl)[n+]([O-])c2ccccc2[n+]1[O-]`, the GI50 was > 100 µM (inactive) in the assay on A498; > 100 µM (inactive) in the assay with CAKI-1; 37.7 µM (inactive) in the assay with HCC 2998; > 100 µM (inactive) in the assay on HOP-92; 25.3 µM (inactive) in the assay with M14; 21.5 µM (inactive) with NCI-H23. The GI50 in the assay with NCI-H460 is 37 µM (inactive); with OVCAR-8 it was 30.7 µM (inactive); in the assay with RXF 393 it was 53.8 µM (inactive); in the assay on SK-MEL-28 it was 43.1 µM (inactive); in the assay on SK-MEL-2, 37.9 µM (inactive); in the assay on SK-MEL-5, 32.6 µM (inactive). For the same compound, the GI50 with SK-OV-3 is > 100 µM (inactive); in the assay with SNB-75 it was 33.6 µM (inactive); in the assay with SW-620, 36 µM (inactive); with U-251, 34.8 µM (inactive).
With `COC(=O)C12OCC34C(CC5C(C)C6=CC(=O)OC6=CC5(C)C3C(O)C1O)OC(=O)C(O)C24` (stereo unspecified), the GI50 in the assay on A498 was 0.544 µM (active); with CAKI-1 it was 4.08 µM (inactive); in the assay on HCC 2998 it was 0.156 µM (active); with HOP-92, 0.231 µM (active); with NCI-H23 it was 0.238 µM (active); with NCI-H460, 0.204 µM (active). For the same compound, the GI50 was 0.935 µM (active) in the assay with OVCAR-8; 0.493 µM (active) in the assay on RXF 393; 0.169 µM (active) with SK-MEL-28; 0.446 µM (active) in the assay with SK-MEL-2; 0.0794 µM (active) in the assay on SK-MEL-5; 5.16 µM (inactive) with SK-OV-3. In addition, the figures for the GI50 in the assay on SNB-75, with SW-620 and with U-251 were 0.399 µM (active), 0.497 µM (active) and 0.233 µM (active), respectively.
With `Cc1ccc(S(=O)(=O)N/N=C/c2oc(-c3ccccc3Cl)c(-c3ccccc3Cl)c2[N+](=O)[O-])cc1`, the GI50 is 20.8 µM (inactive) in the assay with A498; 36.9 µM (inactive) with CAKI-1; 21 µM (inactive) with HCC 2998; 28.5 µM (inactive) with HOP-92; 31 µM (inactive) in the assay with M14; 13.4 µM (inactive) with NCI-H23. Further, the GI50 in the assay with NCI-H460 was 13.2 µM (inactive); in the assay on OVCAR-8, 22.3 µM (inactive); with RXF 393 it was 13.8 µM (inactive); in the assay on SK-MEL-28, 22.9 µM (inactive); in the assay with SK-MEL-2, 25 µM (inactive); in the assay with SK-MEL-5, 19.5 µM (inactive). The GI50 is 45 µM (inactive) in the assay with SK-OV-3 and 21 µM (inactive) in the assay on SW-620.
In the case of `Nc1c(S(=O)(=O)c2ccccc2)c2nc3ccccc3nc2n2c1nc1ccccc12`, the GI50 with A498 is > 100 µM (inactive); with CAKI-1, > 54.1 µM (inactive); in the assay on HCC 2998, > 78.5 µM (inactive); with HOP-92, > 100 µM (inactive); in the assay on M14 it was 16.2 µM (inactive); in the assay on NCI-H23, 19.4 µM (inactive). Also, the GI50 was 34.3 µM (inactive) with NCI-H460; 20.1 µM (inactive) in the assay with OVCAR-8; > 100 µM (inactive) in the assay on RXF 393; 10.4 µM (inactive) in the assay with SK-MEL-28; > 55.3 µM (inactive) with SK-MEL-2; 32.4 µM (inactive) in the assay on SK-MEL-5. For the same compound, the GI50 in the assay with SK-OV-3 is > 100 µM (inactive); in the assay on SNB-75, 7.83 µM (inactive); in the assay on SW-620 it was > 68.2 µM (inactive); in the assay on U-251 it was 24.7 µM (inactive).
As to `CCC(=O)c1c(NOC2OCC(OC(C)=O)C(OC(C)=O)C2OC(C)=O)nc(OC)n(C)c1=O` (stereo unspecified), the GI50 with A498, with CAKI-1, in the assay on HCC 2998, with HOP-92, in the assay on M14 and in the assay with NCI-H23 was > 100 µM (inactive) in each case. Moreover, the GI50 in the assay on NCI-H460, with OVCAR-8, in the assay on RXF 393, in the assay with SK-MEL-28, with SK-MEL-5 and in the assay with SK-OV-3 was > 100 µM (inactive) each time. The GI50 in the assay with SNB-75, with SW-620 and in the assay on U-251 was > 100 µM (inactive) throughout.
In the case of `CCCCCCC1=NOC(C(c2cc[nH]c2)N(C)[C@H](C(=O)OC)C(C)C)C1` (stereo partly specified), the GI50 in the assay on A498 is > 100 µM (inactive); in the assay with CAKI-1, > 100 µM (inactive); in the assay on HCC 2998 it was 33.9 µM (inactive); in the assay on HOP-92, 51.4 µM (inactive); in the assay on M14, 51.8 µM (inactive); with NCI-H23, 47.8 µM (inactive). The GI50 in the assay with OVCAR-8 is 42.2 µM (inactive); in the assay with RXF 393, 52.7 µM (inactive); with SK-MEL-28 it was 75 µM (inactive); in the assay with SK-MEL-2, 25.8 µM (inactive); in the assay with SK-MEL-5, 41.8 µM (inactive); in the assay with SK-OV-3, > 100 µM (inactive). For the same compound, the results for the GI50 with SNB-75, with SW-620 and in the assay with U-251 were 55.6 µM (inactive), 26.6 µM (inactive) and 49.5 µM (inactive), respectively.
For the compound `C[C@@H](NS(=O)(=O)c1ccc(NC(=O)c2ccccc2)cc1)C(=O)O`, the GI50 in the assay on A498, in the assay on CAKI-1, with HCC 2998, with HOP-92, in the assay with M14 and in the assay with NCI-H23 was > 100 µM (inactive) in each case. In addition, the GI50 with NCI-H460, in the assay with OVCAR-8, with RXF 393, with SK-MEL-28, in the assay on SK-MEL-2 and in the assay with SK-MEL-5 was > 100 µM (inactive) throughout. In addition, the GI50 with SK-OV-3, in the assay with SNB-75, with SW-620 and with U-251 was > 100 µM (inactive) each time.
Take `COC(=O)c1cccn1C(=O)n1cccc1`: the GI50 in the assay with A498, in the assay with CAKI-1, in the assay on HCC 2998, with HOP-92, in the assay on M14 and in the assay on NCI-H23 was > 100 µM (inactive) each time. The GI50 in the assay with NCI-H460, in the assay with OVCAR-8, with RXF 393, with SK-MEL-28, with SK-MEL-2 and with SK-MEL-5 was > 100 µM (inactive) in each case. In addition, the GI50 in the assay on SK-OV-3 was > 100 µM (inactive); in the assay on SNB-75, 62.1 µM (inactive); with SW-620 it was > 100 µM (inactive); in the assay on U-251, > 100 µM (inactive).
In the case of `CC(C)C(=O)N1C(=O)O[C@@H](c2ccccc2)[C@H]1C`, the GI50 is > 100 µM (inactive) in the assay on A498; > 37 µM (inactive) in the assay on CAKI-1; > 100 µM (inactive) in the assay on HCC 2998; > 100 µM (inactive) in the assay on HOP-92; > 100 µM (inactive) in the assay on M14; > 100 µM (inactive) in the assay on NCI-H23. Also, the GI50 with NCI-H460 was > 100 µM (inactive); with OVCAR-8 it was > 100 µM (inactive); with RXF 393, > 84.1 µM (inactive); with SK-MEL-28, > 100 µM (inactive); in the assay with SK-MEL-2, > 100 µM (inactive); in the assay on SK-MEL-5, > 100 µM (inactive). In addition, the GI50 in the assay with SK-OV-3, with SNB-75 and in the assay on U-251 was > 100 µM (inactive) each time.
Turning to `CN(C)C(=S)OC(Cn1cncn1)c1ccc(Cl)cc1Cl` (stereo unspecified), the GI50 was > 100 µM (inactive) with A498; > 100 µM (inactive) in the assay on CAKI-1; > 100 µM (inactive) in the assay with HCC 2998; 72.8 µM (inactive) with HOP-92; > 100 µM (inactive) with M14; > 100 µM (inactive) in the assay on NCI-H23. For the same compound, the GI50 was > 100 µM (inactive) in the assay on NCI-H460; > 100 µM (inactive) in the assay with OVCAR-8; > 100 µM (inactive) in the assay on RXF 393; > 100 µM (inactive) in the assay with SK-MEL-28; > 100 µM (inactive) in the assay on SK-MEL-2; 96.4 µM (inactive) in the assay with SK-MEL-5. Further, the GI50 in the assay with SK-OV-3, in the assay with SNB-75, with SW-620 and in the assay on U-251 was > 100 µM (inactive) each time.
For `O=C(O)C[C@@H](Cl)[C@H](NC(=O)OCc1ccccc1)C(=O)O`, the GI50 with A498, with CAKI-1, with HCC 2998, with HOP-92, with M14 and in the assay on NCI-H23 was > 100 µM (inactive) throughout. Moreover, the GI50 in the assay on NCI-H460, in the assay with OVCAR-8, with RXF 393, with SK-MEL-28, in the assay on SK-MEL-2 and with SK-MEL-5 was > 100 µM (inactive) throughout. For the same compound, the GI50 in the assay with SK-OV-3, in the assay with SNB-75, with SW-620 and in the assay with U-251 was > 100 µM (inactive) each time.
